From patent publication US20060079453A1, “Hla binding peptides and their uses” (priority 2002, published 2006)
Values joined by “and” are separate entries in the source; they are usually repeats but may differ in a detail not shown here. Equal values may be shown once. Read-outs that look alike come from different tables or passages of the source. No end group written: not given here.

Experiments:
Assay in all cases: biochemical
H-2Dd = H-2Dd (Mus musculus, UniProt P01900); type: binding, murine
Sequence of H-2Dd (P01900 25-365): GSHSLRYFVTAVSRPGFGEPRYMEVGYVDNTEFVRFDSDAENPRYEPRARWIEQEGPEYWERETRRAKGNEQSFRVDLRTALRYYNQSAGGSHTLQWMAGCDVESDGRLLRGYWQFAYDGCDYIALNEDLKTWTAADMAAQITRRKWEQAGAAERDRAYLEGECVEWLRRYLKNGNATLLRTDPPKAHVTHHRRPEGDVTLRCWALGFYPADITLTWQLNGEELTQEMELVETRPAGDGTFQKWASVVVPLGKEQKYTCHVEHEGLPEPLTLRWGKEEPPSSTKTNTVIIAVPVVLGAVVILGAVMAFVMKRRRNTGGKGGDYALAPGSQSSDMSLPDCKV
Sequence of H-2Dd (P61769 21-119, further chain): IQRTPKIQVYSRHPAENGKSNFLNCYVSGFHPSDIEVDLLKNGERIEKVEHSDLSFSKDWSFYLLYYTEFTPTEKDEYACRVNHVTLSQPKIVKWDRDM

H-2 Db = H-2 Db (Mus musculus, UniProt P01899); type: binding, murine
Sequence of H-2 Db (P61769 21-119): as the sequence (P61769 21-119, further chain) above
Sequence of H-2 Db (P01899 25-362): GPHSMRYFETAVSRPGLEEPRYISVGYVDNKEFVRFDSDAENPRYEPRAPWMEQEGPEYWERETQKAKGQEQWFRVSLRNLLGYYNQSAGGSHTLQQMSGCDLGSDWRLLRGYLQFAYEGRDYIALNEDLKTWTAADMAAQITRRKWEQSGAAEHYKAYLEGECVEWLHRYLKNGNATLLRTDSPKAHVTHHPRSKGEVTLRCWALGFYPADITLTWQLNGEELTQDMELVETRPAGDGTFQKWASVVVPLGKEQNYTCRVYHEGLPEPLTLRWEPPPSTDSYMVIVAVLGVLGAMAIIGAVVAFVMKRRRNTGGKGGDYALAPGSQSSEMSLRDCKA

HLA-B*0702 = HLA-B*0702 (Homo sapiens, UniProt P01889); type: binding
HLA-B*5101 = HLA-B*5101 (Homo sapiens, UniProt P01889, A329T/A93T/A95T/C349S/D138N/D201E/D98Y/E187L/E204Q/E69T/G107R/I218V/K202T/L105A/L119W/N104I/Q94N/R106L/R155S/R180L/S101N/S121T/S35A/S48A/V306I/V36M/Y195H/Y91F); details: B*5101 binding affinity (IC50)
HLA-B*5401 = HLA-B*5401 (Homo sapiens, UniProt P01889, A329T/C349S/D138N/D201E/E176V/E187T/E204Q/E69G/I76V/K202T/L119W/R155S/R180L/S121T/S35A/S48A/V127L/V306I/V36M/Y140L); type: binding; details: B*5401 binding affinity (IC50)
HLA-B*3501 = HLA-B*3501 (Homo sapiens, UniProt P01889, A329T/A93T/A95T/C349S/D201E/D98Y/E176V/E187L/E204Q/E69T/I218V/K202T/L119I/Q94N/R155S/R180L/S121R/S35A/S48A/T118I/V127L/V306I/V36M/Y140S/Y91F); details: B*3501 binding affinity (IC50)
[1] = target: HLA-DQ DQA1*0301/B*0301 (DQ7) (Homo sapiens, UniProt P01909+P01920, A209T/C70Q/DUP78-78/E183D/F237L/G63E/I129T/K197E/L178F/L74F/L98V/Q57E/Q76R/S185I/S97I/T49S/V73L); type: binding; details: read-out: DQB1*0301
HLA-DR DRB3*0101 (DR52) = HLA-DR DRB3*0101 (DR52) (Homo sapiens, UniProt P01903+P79483); type: binding; details: read-out: DRB3 *0101
HLA-DR DRB4*0101 (DR53) = HLA-DR DRB4*0101 (DR53) (Homo sapiens, UniProt P01903+P13762, G164S); type: binding; details: read-out: DRB4 *0101
HLA-DR DRB1*1501 (DR15) = HLA-DR DRB1*1501 (DR15) (Homo sapiens, UniProt P01903+P01911); type: binding; details: read-out: DRBI *1501
HLA-DR DRB1*1101 (DR11) = HLA-DR DRB1*1101 (DR11) (Homo sapiens, UniProt P01903+P01911, A100R/A169T/A87E/I96F/K41T/L162R/M171V/P40S/Q125H/Q178H/Q39Y/Q99D/R42S/S66Y/T262R/V115G/W38E); type: binding; details: read-out: DRB1 *1101
Sequence of HLA-DR DRB1*1101 (DR11) (P01903 26-254 limits assumed, other chains not shown): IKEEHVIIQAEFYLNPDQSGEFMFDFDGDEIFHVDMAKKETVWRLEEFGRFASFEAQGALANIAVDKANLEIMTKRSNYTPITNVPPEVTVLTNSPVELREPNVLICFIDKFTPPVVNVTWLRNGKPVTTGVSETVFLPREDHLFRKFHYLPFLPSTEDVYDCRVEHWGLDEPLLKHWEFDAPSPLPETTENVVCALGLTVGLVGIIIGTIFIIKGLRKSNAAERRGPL

HLA-DR DRB1*0701 (DR7) = HLA-DR DRB1*0701 (DR7) (Homo sapiens, UniProt P01903+P01911, A100R/A102G/A103Q/D57E/D86V/E43K/F76Y/K127E/L162R/M171V/P40G/Q125H/Q99D/R33Q/R42Y/R54Q/S133A/S66F/T210M/V115G/Y107V/Y59L/Y89S); type: binding; details: read-out: DRB1 *0701
HLA-DR DRB5*0101 (DR51) = HLA-DR DRB5*0101 (DR51) (Homo sapiens, UniProt P01903+Q30154); type: binding; details: read-out: DRB5 *0101

RGKYRAFVTI
IC50 (H-2Dd): 67 nM

RGPARAFVTI
IC50 (H-2Dd): 1.04 nM

RGPFRAFVTI
IC50 (H-2Dd): 0.78 nM

RGPGRAFYTI
IC50 (H-2Dd): 7.2 nM

RGPGRAYVTI
IC50 (H-2Dd): 14 nM

RGPGRYFVTI
IC50 (H-2Dd): 2.7 nM

RGPYKAFVTI
IC50 (H-2Dd): 13 nM

RGPYRAAVTI
IC50 (H-2Dd): 2 nM

RGPYRAFATI
IC50 (H-2Dd): 2.1 nM

RGPYRAFKTI
IC50 (H-2Dd): 2.3 nM

RGPYRAFVAI
IC50 (H-2Dd): 1.3 nM

RGPYRAFVKI
IC50 (H-2Dd): 3.9 nM

RGPYRAFVTK
IC50 (H-2Dd): 91 nM

RGPYRAYVTI
IC50 (H-2Dd): 2.1 nM

RGPYRKFVTI
IC50 (H-2Dd): 3.6 nM

RLIQNFLTI
IC50 (H-2 Db; Db): 40 nM

RMIQNSLTI
IC50 (H-2 Db; Db): 4.6 nM

RNPRFYNL
IC50 (H-2 Db; Db): > 44000 nM

RPGPGPGAV
IC50 (HLA-B*0702; B*0702 binding affinity (IC50)): 23 nM

RPQVPLRPMTI
IC50 (HLA-B*5101): 8080 nM | IC50 (HLA-B*5401): > 15100 nM | IC50 (HLA-B*3501): > 19000 nM and 10500 nM

RPRFGPGPGEF
IC50 (HLA-B*0702; B*0702 binding affinity (IC50)): 14 nM

RPRFRGPGPGF
IC50 (HLA-B*0702; B*0702 binding affinity (IC50)): 9.7 nM

RPRGPGPGV
IC50 (HLA-B*0702; B*0702 binding affinity (IC50)): 11 nM

SDSNYYDLLKDLEEG
IC50 [1]: > 89300 nM

SFYRNLLWL
IC50 (H-2 Db; Db): 46 nM and 304 nM

SGVENPGGYCL
IC50 (H-2 Db; Db): 60 nM

SGVENPGGYCM
IC50 (H-2 Db; Db): 128 nM

SHYAFSPM
IC50 (H-2 Db; Db): > 88000 nM

SQVMNLHNL
IC50 (H-2 Db; Db): 2.3 nM

SSMHNALHI
IC50 (H-2 Db; Db): 7.6 nM

STGWNRTIVENLLAN
IC50 [1]: 47100 nM

TALANTIEV
IC50 (H-2 Db; read-out: Db): 16 nM

TALANTIEY
IC50 (H-2 Db; read-out: Db): 3.7 nM

TGICNQNII
IC50 (H-2 Db; read-out: Db): 21 nM

TGIGNQNII
IC50 (H-2 Db; read-out: Db): 13 nM

VPGPGPGL
IC50 (HLA-B*0702; B*0702 binding affinity (IC50)): 1520 nM

WGPSLYSI
IC50 (H-2Dd): 17 nM

WGPSLYSIL
IC50 (H-2Dd): 6.6 nM

XVXDNATEY
IC50 (HLA-B*0702; read-out: B*0702 binding affinity (IC50)): > 55000 nM

YAAFAAAKTAAAFA
IC50 (HLA-DR DRB3*0101 (DR52)): 33300 nM | IC50 (HLA-DR DRB4*0101 (DR53)): 30 nM | IC50 (HLA-DR DRB1*1501 (DR15)): > 4350 nM | IC50 (HLA-DR DRB1*1101 (DR11)): 2.6 nM | IC50 (HLA-DR DRB1*0701 (DR7)): 34 nM | IC50 (HLA-DR DRB5*0101 (DR51)): 9.5 nM | IC50 [1]: 36 nM and 39 nM

YMRVNGKWM
IC50 (H-2 Db; Db): 50 nM

YPLTFGWCI
IC50 (HLA-B*5401): 79 nM | IC50 (HLA-B*0702; B*0702 binding affinity (IC50)): 54300 nM
